Values of other authors in patent publication US7943615B2, “Fused aminopiperidines as dipeptidyl peptidase-4 inhibitors for the treatment or prevention of diabetes” (Merck Sharp & Dohme Corp., priority 2005, dated 2011).

Experiments:
cardiac allograft = settings: rats; doubled from day 7
hematopoiesis = settings: mouse, cyclophosphamide-induced neutropenia
DPP-4 = biological target: T1, DPP-4 (Homo sapiens, UniProt P27487)
T1 construct: GRF is rapidly degraded in plasma to GRF[344]
T1 sequence (P27487 whole entry, species assumed): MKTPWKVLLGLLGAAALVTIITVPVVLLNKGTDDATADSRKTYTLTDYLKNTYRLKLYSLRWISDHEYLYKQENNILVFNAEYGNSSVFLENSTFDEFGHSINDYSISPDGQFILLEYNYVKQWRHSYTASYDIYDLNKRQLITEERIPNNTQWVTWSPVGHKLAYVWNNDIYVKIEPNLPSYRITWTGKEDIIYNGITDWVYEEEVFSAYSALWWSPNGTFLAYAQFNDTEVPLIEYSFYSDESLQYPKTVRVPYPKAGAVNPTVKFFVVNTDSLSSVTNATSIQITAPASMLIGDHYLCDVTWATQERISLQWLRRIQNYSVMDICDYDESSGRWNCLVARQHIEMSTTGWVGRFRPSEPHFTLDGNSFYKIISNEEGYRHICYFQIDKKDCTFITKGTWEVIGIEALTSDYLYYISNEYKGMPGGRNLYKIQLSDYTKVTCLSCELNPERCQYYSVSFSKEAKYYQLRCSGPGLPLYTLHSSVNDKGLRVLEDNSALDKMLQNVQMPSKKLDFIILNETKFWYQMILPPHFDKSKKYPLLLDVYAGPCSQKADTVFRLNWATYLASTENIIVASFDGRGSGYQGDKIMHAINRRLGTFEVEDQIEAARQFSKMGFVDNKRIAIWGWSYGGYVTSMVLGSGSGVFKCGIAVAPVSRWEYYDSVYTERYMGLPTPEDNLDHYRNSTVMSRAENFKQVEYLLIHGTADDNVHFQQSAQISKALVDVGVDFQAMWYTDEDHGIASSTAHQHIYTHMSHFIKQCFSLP

In the case of `CC(C)N1CCC(c2ccccc2)(c2ccccc2)CC1` [Prodipine, Pro-Pro-diphenyl-phosphonate], the cardiac allograft survival (cardiac allograft) is given as 14 day.

In the case of `CC(C)[C@H](N)C(=O)N1CCC[C@H]1B(O)O` [Val-Boro-Pro], the effect on hematopoiesis (hematopoiesis) is given as “stimulated hematopoiesis”.

In the case of diprotin A, the “effect on degradation of GRF in plasma” value (DPP-4) is given as “prevented”.
